Experiments:
[1] = target: T1, LkcE (Streptomyces rochei, UniProt G4V2H3); assay: X-ray crystallography, […] Å; mass spectrometry of released cofactor; type: binding; conditions: non-covalent; co-purified; selenomethionyl holo crystal
T1 construct: recombinant from E. coli (pBG-102), His6-SUMO tag removed by HRV3C protease

[2] = target: T1, LkcE; assay: X-ray crystallography, […] Å, co-crystal; type: binding; conditions: active site, one of the two per site, no turnover
[3] = target: LkcE wild type (amide oxidase/macrocyclase of lankacidin biosynthesis, Streptomyces rochei) (Streptomyces rochei); assay: SAXS; recombinant LkcE in solution; Rg 31.0 Å, Dmax 91 Å; compared with the homodimer's calculated mass and the LkcEWT crystal structure

T1 sequence (G4V2H3 entry or part of it): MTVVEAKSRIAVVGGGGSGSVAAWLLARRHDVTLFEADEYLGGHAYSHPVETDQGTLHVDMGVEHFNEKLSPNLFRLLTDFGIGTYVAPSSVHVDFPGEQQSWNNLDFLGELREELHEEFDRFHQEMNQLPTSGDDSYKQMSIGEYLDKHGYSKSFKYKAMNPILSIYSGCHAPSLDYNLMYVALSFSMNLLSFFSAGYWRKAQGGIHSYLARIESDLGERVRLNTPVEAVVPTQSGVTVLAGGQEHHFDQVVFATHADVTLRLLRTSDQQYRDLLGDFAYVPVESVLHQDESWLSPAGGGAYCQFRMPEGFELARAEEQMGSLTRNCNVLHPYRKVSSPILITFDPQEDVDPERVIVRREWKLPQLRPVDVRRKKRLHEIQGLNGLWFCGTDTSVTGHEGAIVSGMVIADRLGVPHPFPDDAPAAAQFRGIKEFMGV

Compound: Cc1cc2nc3c(=O)[nH]c(=O)nc-3n(C[C@H](O)[C@H](O)[C@H](O)COP(=O)(O)OP(=O)(O)OC[C@H]3O[C@@H](n4cnc5c(N)ncnc54)[C@H](O)[C@@H]3O)c2cc1C [FAD]
- X-ray crystallography, 3.15 Å; mass spectrometry of released cofactor [1]: the FAD cofactor is non-covalently bound

Compound: CCOC(=O)[C@H](C)C(C)=O [compound 4, EMAA]
- X-ray crystallography, 2.80 Å, co-crystal ([2]; position overlaps DATD): clear electron density attributable to EMAA and DATD

Compound: C=CCNC(=O)[C@H](O)[C@@H](O)C(=O)NCC=C [compound 5, DATD]
- X-ray crystallography, 2.80 Å, co-crystal ([2]; position overlaps EMAA): clear electron density attributable to EMAA and DATD

Compound: LkcE wild type (amide oxidase/macrocyclase of lankacidin biosynthesis, Streptomyces rochei) (enzyme)
- stoichiometry N [3]: 2

Reference: paper PMC6162330, “Insights into a dual function amide oxidase/macrocyclase from lankacidin biosynthesis” (Nature Communications, 2018)
